From patent US9493528B2, “Microphthalmia-associated transcription factor-derived peptide and composition containing same” (KNU-INDUSTRY COOPERATION FOUNDATION, priority 2013, dated 2016)
No end group written: not given here.

Key:
[1] = test system: mouse melanoma cell line B16F1; experiment: Inhibitory activity against melanin formation in mouse melanoma cell line B16F1; assay type: cell-based; settings: B16F1 cells, α-MSH 100 nM, peptide 0.1, 1 and 10 μM, 24 hours, FIG. 5
Description: B16F1 cells (Korean Cell Line Bank, Seoul) were added to each well of a 6-well plate (1.5×10^5 cells per well), along with 2 ml of DMEM, and then incubated in a 5% CO2 incubator at 37° C. for 24 hours. α-MSH (Sigma Co, MO, USA) (100 nM) was treated to each well, along with the peptide of SEQ ID NO: 3 in the final concentrations of 0.1, 1, and 10 μM. The groups in which α-MSH (100 nM) and foskolin (Sigma Co, MO, USA) (10 μM) were respectively treated were used as positive controls. And also, the group having no treatment (i.e., no α-MSH (100 nM) treatment) and the group in which α-MSH (100 nM) and Kojic acid (Sigma Co, MO, USA) (800 μM) were treated were used as negative controls. After additionally incubating the plate for 24 hours, the pictures of each culture ware taken so as to compare the respective levels of melanin formation.

[2] = test system: tyrosinase; experiment: Inhibitory activity against tyrosinase activity in mouse melanoma cell line B16F1 (L-DOPA); assay type: cell-based; settings: B16F1 cells, α-MSH, 72 hours, extracts with L-DOPA 2 hours, absorbance at 490, FIG. 6
Description: B16F1 cells (Korean Cell Line Bank, Seoul) were added to each well of a 24-well plate (5×10^4 cells per well), along with 1 ml of DMEM, and then stabilized through incubating in a 5% CO2 incubator at 37° C. for 24 hours. α-MSH (Sigma Co, MO, USA), a melanocyte-stimulating hormone, was treated to each well, along with the peptide of SEQ ID NO: 3 in predetermined concentrations. After incubating the plate for 72 hours, the proteins were extracted therefrom. The obtained extracts were added to each well of a 96-well plate and then treated with a L-dihydroxyphenylalanine (L-DOPA) solution (100 μL) at 37° C. for 2 hours. After 2 hours, the pictures thereof were taken and the tyrosinase activities thereof were measured at […] with a microreader.

[3] = test system: tyrosinase (TYR); experiment: Gene expression of tyrosinase in B16F1 cells (RT-PCR); assay type: cell-based, mouse; settings: α-MSH, 72 hours, FIG. 7
Description: (§1) B16F1 cells (Korean Cell Line Bank, Seoul) were added to each well of a 6-well plate (1.5×10^5 cells per well), along with 2 ml of DMEM, and then stabilized through incubating in a 5% CO2 incubator at 37° C. for 24 hours. α-MSH (Sigma Co, MO, USA), a melanocyte-stimulating hormone, was treated to each well, along with the peptide of SEQ ID NO: 3 in predetermined concentrations. After incubating the plate for 72 hours, the total RNAs were extracted therefrom and then cDNAs were synthesized. The cDNA syntheses were carried out with a Reverse Transcription Master premix (Elpisbiotech, Daejeon, Korea). Using each synthesized cDNA as a template, reverse transcription polymerase chain reaction (RT-PCR) was carried out with a ROTOR Q GENE apparatus. Each RT-PCR solution was prepared by mixing 1 μl of cDNA, 10 μl of TOPreal qRT-PCR2X premix (Enzynomics, Daejeon, Korea), 2 μl of primer set (10 pmol) and 7 μl of D. W. The RT-PCR was carried out as follows: initially at 94° C. for 10 minutes; and then at 94° C. for 10 seconds, at 58° C. for 30 seconds, and at 72° C. for 1 minute; 40 cycles.
(§2) The results obtained by measuring the gene expressions of tyrosinase, TRP-1 and TRP-2 through the above RT-PCR are shown in FIG. 7.

[4] = test system: TRP-1; experiment: Gene expression of TRP-1 in B16F1 cells (RT-PCR); assay type: cell-based, mouse; settings: α-MSH, 72 hours, FIG. 7
Description: as §1, §2

[5] = test system: TRP-2; experiment: Gene expression of TRP-2 in B16F1 cells (RT-PCR); assay type: cell-based, mouse; settings: α-MSH, 72 hours, FIG. 7
Description: as §1, §2

[6] = test system: B16F1 cells; experiment: Inhibitory activity against proliferation of mouse melanoma cell line B16F1 (CCK-8); assay type: cell-based; settings: peptide 0.01, 0.1, 1 or 10 μM, 24, 48 and 72 hours, CCK-8, FIG. 8
Description: B16F1 cells (Korean Cell Line Bank, Seoul) were added to each well of a 96-well plate (5×10^3 cells per well), along with 100 μL of DMEM, and then incubated in a 5% CO2 incubator at 37° C. for 24 hours. The respective wells were treated with 10 μL of each peptide solution of SEQ ID NO: 3 having a concentration of 0.01, 0.1, 1, or 10 μM. After incubating the plate for 24, 48, and 72 hours, each well was treated with CCK-8 (Dojindo Laboratories, Japan) for 1 hour and then the absorbance thereof was measured at 450 nm, using a Spectramax plus 190 plate reader (Molecular Devices, USA).

[7] = test system: BCL-2; experiment: Inhibitory activity against BCL-2 expression in mouse melanoma cell line B16F1 (Western blotting); assay type: cell-based; settings: B16F1 cells, UV-B 50 mJ/cm^2 plus peptide in predetermined concentrations, 24 hours, Western blot, FIG. 9
Description: The expression of BCL-2, playing a critical role in proliferation of melanocytes, is controlled by MITF. Whether the BCL-2 expression in melanocytes is inhibited by the treatment of the peptide of the present invention was evaluated, using a Western blotting assay. B16F1 cells (Korean Cell Line Bank, Seoul) were added to each well of a 6-well plate (1.5×10^5 cells per well), along with 2 ml of DMEM, and then incubated in a 5% CO2 incubator at 37° C. for 24 hours. Each well was treated with UV-B irradiation (50 mJ/cm^2) and the peptide of SEQ ID NO: 3 in predetermined concentrations. After incubating the plate for 24 hours, the proteins were extracted therefrom. The extracts were subject to the Western blotting assay using an anti-BCL-2 antibody (Santa Cruz Co., CA, USA).

Substance | melanin formation (colour of cell culture) [1] | tyrosinase activity [2] | expression of tyrosinase (TYR) [3] | expression of TRP-1 [4] | expression of TRP-2 [5] | proliferation of B16F1 cells [6] | expression levels of BCL-2 [7]
Lys-Gly-Arg (KGR; Peptide fragment) [SEQ ID NO: 3, MITF-derived peptide fragment] | decreased according to the concentrations of the peptide | decreased in concentration-dependent manner | decreased in concentration-dependent manner | decreased in concentration-dependent manner | decreased in concentration-dependent manner | decreased in concentration-dependent manner | reduced
α-melanocyte stimulating hormone (SYSMEHFRWGKPV; ends and bridges not checked; UniProt P01189 138-150, looked up) [α-MSH, melanocyte-stimulating hormone (Sigma), used as stimulus / positive control, reference compound] | – | increased | increased | increased | increased | – | –
